How the values were obtained:
hLPYK [1] = biological target: T1, hLPYK (Homo sapiens, UniProt P30613); assay: enzyme kinetics, allosteric linkage analysis; assay type: biochemical; details: allosteric inhibitor site; effector binding in absence of PEP; read-out: Kix-Ala
T1 construct: gene PKLR; full-length liver isozyme; homotetramer; purified or partially purified
From the text: enzyme kinetics, allosteric linkage analysis on hLPYK | (ii) Kix-Ala, the binding of Ala

hLPYK [2] = biological target: T1, hLPYK; assay: enzyme kinetics, allosteric linkage analysis; assay type: biochemical; details: allosteric activator site; effector binding in absence of PEP
rM1PYK = biological target: T2, rM1PYK (Oryctolagus cuniculus, UniProt P11974); assay: X-ray crystal structure, […] Å; assay type: binding; details: active site of some subunits; may stem from the crystallisation medium
T2 construct: gene PKM; rabbit muscle M1 isozyme; homotetramer; crystal structures
T2 sequence (P11974 2-531): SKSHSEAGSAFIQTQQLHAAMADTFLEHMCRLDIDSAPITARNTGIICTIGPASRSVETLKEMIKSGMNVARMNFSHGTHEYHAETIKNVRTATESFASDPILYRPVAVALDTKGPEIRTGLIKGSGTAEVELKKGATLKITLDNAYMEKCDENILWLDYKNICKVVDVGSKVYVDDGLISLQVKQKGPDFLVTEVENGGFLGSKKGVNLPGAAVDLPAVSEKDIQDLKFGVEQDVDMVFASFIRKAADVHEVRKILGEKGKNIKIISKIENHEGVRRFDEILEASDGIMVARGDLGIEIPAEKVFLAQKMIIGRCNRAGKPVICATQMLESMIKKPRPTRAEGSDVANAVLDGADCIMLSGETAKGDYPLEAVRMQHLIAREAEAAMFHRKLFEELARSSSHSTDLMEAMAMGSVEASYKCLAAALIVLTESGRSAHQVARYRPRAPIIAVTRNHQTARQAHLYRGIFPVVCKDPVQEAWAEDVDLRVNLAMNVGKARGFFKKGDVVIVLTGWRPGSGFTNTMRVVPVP

T1 sequence (P30613 1-543 isoform P30613-2): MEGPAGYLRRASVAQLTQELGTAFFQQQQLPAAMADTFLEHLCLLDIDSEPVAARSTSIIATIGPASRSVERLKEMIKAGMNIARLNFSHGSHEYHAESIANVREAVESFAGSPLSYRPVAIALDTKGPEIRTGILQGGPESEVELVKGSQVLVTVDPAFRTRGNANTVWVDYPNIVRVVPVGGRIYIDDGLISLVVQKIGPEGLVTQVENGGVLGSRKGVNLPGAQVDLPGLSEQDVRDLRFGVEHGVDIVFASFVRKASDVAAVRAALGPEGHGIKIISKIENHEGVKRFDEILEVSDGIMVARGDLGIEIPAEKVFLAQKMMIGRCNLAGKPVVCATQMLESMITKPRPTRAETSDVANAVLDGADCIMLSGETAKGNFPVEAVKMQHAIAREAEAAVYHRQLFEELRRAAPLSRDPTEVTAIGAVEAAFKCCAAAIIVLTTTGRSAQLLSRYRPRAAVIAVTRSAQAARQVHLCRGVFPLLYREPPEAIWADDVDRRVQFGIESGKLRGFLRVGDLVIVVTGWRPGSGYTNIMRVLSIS

C[C@H](N)C(=O)O [alanine]
Kd (hLPYK [1]): 250 µM

O=P(O)(O)OC[C@H]1OC(O)(COP(=O)(O)O)[C@@H](O)[C@@H]1O (stereo partly drawn) [fructose-1,6-bisphosphate]
Kix-FBP (hLPYK [2]): (iii) Kix-FBP, the binding of Fru-1,6-BP

O=C(O)CCC(=O)O [succinate]
X-ray crystal structure, 2.2 Å (rM1PYK): active sites are populated by either a phosphonate analogue of PEP or succinate
